Measurements reported in a compilation of properties of binary mixtures (doi:10.1021/ie501956x).

Assay: xn = mol fraction of the nth substance listed
Conditions: 101 kPa

CCO + CC(=O)[O-].CC[n+]1ccn(C)c1
x1 = 1
Conditions | viscosity [mPa·s]
278.15 K | 1.582
288.15 K | 1.31
298.15 K | 1.081
308.15 K | 0.899
328.15 K | 0.638

CC(=O)[O-].CC[n+]1ccn(C)c1 + CCO
viscosity [mPa·s]
Conditions | x2 = 0 | x2 = 0.1 | x2 = 0.201 | x2 = 0.2999 | x2 = 0.4002 | x2 = 0.5001 | x2 = 0.6 | x2 = 0.7 | x2 = 0.8 | x2 = 0.9
278.15 K | 690 | 462 | – | 149.8 | 86.7 | 44.6 | 23.61 | 12.96 | 6.55 | –
288.15 K | – | – | 130.8 | 81.5 | 49.1 | 28.97 | 16.59 | 9.3 | – | 2.751
298.15 K | 139 | 107.7 | 73.3 | 49.2 | – | – | 12.2 | 7.2 | 4.145 | 2.264
308.15 K | 77.3 | 62.8 | 45.4 | – | 21.86 | 14.48 | – | 5.71 | – | 1.885
318.15 K | 47.4 | – | – | – | – | 10.91 | – | 4.64 | 2.829 | –
328.15 K | 31.3 | 26.89 | 21 | 15.99 | 11.82 | 8.49 | 5.84 | – | 2.391 | 1.355
338.15 K | – | 19.14 | 15.4 | 12.05 | 9.18 | 6.77 | 4.79 | 3.218 | – | 1.165
